These results are taken from the supplement of paper PMC9265050, “Inhibition of RNA Binding in SND1 Increases the Levels of miR-1-3p and Sensitizes Cancer Cells to Navitoclax” (Cancers, 2022).

For this experiment, the system named is SW480. The experiment is described as follows: drug sensitivity score (DSS, integrated dose-response area); higher = more sensitive (stronger viability reduction); extreme values may be limits of the assay. The procedure, abridged:
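Viability of induced SW480 cells carrying control or SND1-targeting shRNA was read by CellTiter-Glo 72 h after plating at 1000 cells per well onto 384-well plates holding 525 small-molecule inhibitors at five concentrations. Induction used 0.1 µg/mL doxycycline for 7 days. Each drug sensitivity score integrates the area under a fitted non-linear dose–response model.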

Setting [1] is: shRNA: SND1 shRNA1 (SND1 silenced).
Setting [2] is: shRNA: SND1 shRNA2 (SND1 silenced).
[3] abbreviates: shRNA: control shRNA (non-targeting).

For `CN[C@@H]1C[C@H]2O[C@@](C)([C@@H]1OC)n1c3ccccc3c3c4c(c5c6ccccc6n2c5c31)C(=O)N[C@H]4O` [UCN-01], the drug sensitivity score came to 24 DSS under setting [1], 25 DSS under setting [2] and 25.4 DSS under setting [3].
As for `O=C(Cc1ccc(-c2ccc(OCCN3CCOCC3)cc2)cn1)NCc1ccccc1` [KX2-391], the drug sensitivity score reads like this: under setting [1], 15 DSS; under setting [2], 17.4 DSS; under setting [3], 18.9 DSS.
Molecule `CCCCCOC(=O)Nc1nc(=O)n([C@@H]2O[C@H](C)[C@@H](O)[C@H]2O)cc1F` [Capecitabine] showed a drug sensitivity score under setting [1] of 0 DSS, a drug sensitivity score under setting [2] of 0 DSS and a drug sensitivity score under setting [3] of 0 DSS.
Take `CC(C)c1cc(-c2n[nH]c(=O)n2-c2ccc3c(ccn3C)c2)c(O)cc1O` [Ganetespib]: the drug sensitivity score worked out at 12.7 DSS under setting [1], 12.5 DSS under setting [2] and 13.9 DSS under setting [3].
Turning to `O=C(c1ccc(/C=C/c2n[nH]c3ccccc23)cc1)N1CCNCC1` [KW-2449], the drug sensitivity score under setting [1] amounted to 0.7 DSS, the drug sensitivity score under setting [2] turned out to be 0 DSS and the drug sensitivity score under setting [3] worked out at 0.2 DSS.
For the molecule `CO[C@H]1C[C@@H]2CC[C@@H](C)[C@@](O)(O2)C(=O)C(=O)N2CCCC[C@H]2C(=O)O[C@H]([C@H](C)C[C@@H]2CC[C@@H](OCCO)[C@H](OC)C2)CC(=O)[C@H](C)/C=C(\C)[C@@H](O)[C@@H](OC)C(=O)[C@H](C)C[C@H](C)/C=C/C=C/C=C/1C` [Everolimus], the drug sensitivity score amounted to 7.5 DSS under setting [1] and 0.4 DSS under setting [3].
Turning to `CO[C@H]1/C=C\C=C(/C)C(=O)NC2=CC(=O)C(NCCN(C)C)=C(C[C@@H](C)C[C@H](OC)[C@H](O)[C@@H](C)/C=C(\C)[C@@H]1OC(N)=O)C2=O` [Alvespimycin], the drug sensitivity score was found to be 7 DSS under setting [1], 6 DSS under setting [2] and 7.9 DSS under setting [3].
For the molecule `Cn1c(Nc2ccc(C(F)(F)F)cc2)nc2cc(Oc3ccnc(-c4ncc(C(F)(F)F)[nH]4)c3)ccc21` [RAF265], the drug sensitivity score reads like this: under setting [1], 0 DSS; under setting [2], 1.8 DSS; under setting [3], 2 DSS.
The molecule `CNC(=O)c1ccccc1Nc1nc(Nc2ccc3c(c2OC)CCC[C@H](N2CCN(CCO)CC2)C3)ncc1Cl` showed a drug sensitivity score under setting [1] of 3.9 DSS, a drug sensitivity score under setting [2] of 3.5 DSS and a drug sensitivity score under setting [3] of 5.5 DSS.
In turn, `COCC(=O)NC/C=C/c1ccc2ncnc(Nc3ccc(Oc4ccc(C)nc4)c(C)c3)c2c1` registered a drug sensitivity score under setting [1] of 3.4 DSS and a drug sensitivity score under setting [3] of 3.2 DSS.
`CC(C)Oc1ccc(C(=O)N[C@H](CNC(=O)CN(C)C)Cc2ccc(-c3cn4cccc([C@H](C)O)c4n3)cc2)cc1Cl`: the drug sensitivity score reads like this: under setting [1], 13.1 DSS; under setting [2], 12 DSS; under setting [3], 13.3 DSS.
On to `CCC/C=C/C=C/C(=O)O[C@H]1/C(=C/C(=O)OC)C[C@H]2C[C@H]([C@@H](C)O)OC(=O)C[C@H](O)C[C@@H]3C[C@H](OC(C)=O)C(C)(C)[C@](O)(C[C@@H]4C/C(=C/C(=O)OC)C[C@H](/C=C/C(C)(C)[C@]1(O)O2)O4)O3` [Bryostatin 1], for which the drug sensitivity score runs as follows: under setting [1], 1.7 DSS; under setting [2], 0.6 DSS; under setting [3], 0 DSS.
`C/C(=C\c1csc(C)n1)[C@@H]1C[C@@H]2O[C@]2(C)CCC[C@H](C)[C@H](O)[C@@H](C)C(=O)C(C)(C)[C@@H](O)CC(=O)O1` [Patupilone] registered a drug sensitivity score under setting [1] of 17.9 DSS, a drug sensitivity score under setting [2] of 18.3 DSS and a drug sensitivity score under setting [3] of 18.4 DSS.
As for `C[C@@H]1CCN(C(=O)CC#N)C[C@@H]1N(C)c1ncnc2[nH]ccc12` [Tofacitinib], the drug sensitivity score turned out to be 0 DSS under setting [1], 0 DSS under setting [2] and 0 DSS under setting [3].
Molecule `COc1cc(Nc2ncc(F)c(Nc3ccc4c(n3)NC(=O)C(C)(C)O4)n2)cc(OC)c1OC` [Tamatinib] gave a drug sensitivity score under setting [1] of 0.4 DSS, a drug sensitivity score under setting [2] of 0.4 DSS and a drug sensitivity score under setting [3] of 0 DSS.
The molecule `NC1(c2ccc(-c3nc4ccn5c(=O)[nH]nc5c4cc3-c3ccccc3)cc2)CCC1` [MK-2206] had a drug sensitivity score under setting [1] of 3.5 DSS, a drug sensitivity score under setting [2] of 4.4 DSS and a drug sensitivity score under setting [3] of 3.6 DSS.
Take `Nc1ccn([C@@H]2O[C@H](CO)[C@@H](O)C2(F)F)c(=O)n1` [Gemcitabine]: the drug sensitivity score reads like this: under setting [1], 15.8 DSS; under setting [2], 6.1 DSS; under setting [3], 13.4 DSS.
In turn, `NC(=O)NO` [Hydroxyurea] displayed a drug sensitivity score under setting [1] of 0 DSS, a drug sensitivity score under setting [2] of 0 DSS and a drug sensitivity score under setting [3] of 0.2 DSS.
Consider `CCCS(=O)(=O)Nc1ccc(F)c(C(=O)c2c[nH]c3ncc(-c4ccc(Cl)cc4)cc23)c1F` [Vemurafenib], for which the drug sensitivity score came out at 0 DSS under setting [1], 0.1 DSS under setting [2] and 0 DSS under setting [3].
For `COc1cc2nccc(Oc3ccc(NC(=O)Nc4cc(C)on4)c(Cl)c3)c2cc1OC` [Tivozanib], the drug sensitivity score came out at 3.8 DSS under setting [1], 3.6 DSS under setting [2] and 5 DSS under setting [3].
For `COc1c(OCCCN2CCOCC2)ccc2c1N=C(NC(=O)c1cnc(N)nc1)N1CCN=C21` [Copanlisib], the drug sensitivity score reads like this: under setting [1], 4 DSS; under setting [2], 0.3 DSS; under setting [3], 0 DSS.
For `C=CCn1c(=O)c2cnc(Nc3ccc(N4CCN(C)CC4)cc3)nc2n1-c1cccc(C(C)(C)O)n1` [MK1775], the drug sensitivity score runs as follows: under setting [1], 13.5 DSS; under setting [2], 11.5 DSS; under setting [3], 11.9 DSS.
In turn, `CC[C@]1(O)C[C@H]2CN(CCc3c([nH]c4ccccc34)[C@@](C(=O)OC)(c3cc4c(cc3OC)N(C=O)[C@H]3[C@@](O)(C(=O)OC)[C@H](OC(C)=O)[C@]5(CC)C=CCN6CC[C@]43[C@@H]65)C2)C1` [Vincristine] showed a drug sensitivity score under setting [1] of 10.1 DSS, a drug sensitivity score under setting [2] of 9.7 DSS and a drug sensitivity score under setting [3] of 16.6 DSS.
On to `CN(CC(=O)N(Cc1ccc(C2CCCCC2)cc1)c1ccc(C(=O)O)cc1)S(=O)(=O)c1c(F)c(F)c(F)c(F)c1F` [SH-4-54], for which the drug sensitivity score worked out at 9.8 DSS under setting [1], 8.6 DSS under setting [2] and 9.5 DSS under setting [3].
In the case of `Cc1c(C(=O)Nc2ccc(N3C[C@@H](C)O[C@@H](C)C3)nc2)cccc1-c1ccc(OC(F)(F)F)cc1` [Sonidegib], the drug sensitivity score under setting [1] was determined as 2.9 DSS, the drug sensitivity score under setting [2] worked out at 5.7 DSS and the drug sensitivity score under setting [3] is 2.8 DSS.
On to `Cc1cc(C)c(CNC(=O)c2cc(-c3ccc(CN4CCOCC4)cc3)cc3c2cnn3C2CCCC2)c(=O)[nH]1` [EPZ-5687], for which the drug sensitivity score stood at 0 DSS under setting [1], 0 DSS under setting [2] and 0 DSS under setting [3].
As to `COC(=O)C[C@](O)(CCCC(C)(C)O)C(=O)O[C@@H]1C(OC)=C[C@]23CCCN2CCc2cc4c(cc2[C@H]13)OCO4` [Omacetaxine], the drug sensitivity score reads like this: under setting [1], 21.9 DSS; under setting [2], 23.5 DSS; under setting [3], 23.3 DSS.
`CC(C)[C@H]1C(=O)N[C@@H](CCCNC(=N)N)C(=O)NCC(=O)N[C@@H](CC(=O)O)C(=O)N[C@H](Cc2ccccc2)C(=O)N1C` [Cilengitide]: the drug sensitivity score is 0 DSS under setting [1], 0 DSS under setting [2] and 0 DSS under setting [3].
As for `C[C@@H](Oc1cc(-c2cnn(C3CCNCC3)c2)cnc1N)c1c(Cl)ccc(F)c1Cl` [Crizotinib], the drug sensitivity score by setting is: under setting [1], 0.6 DSS; under setting [2], 0.2 DSS; under setting [3], 2.9 DSS.
In the case of `CNC(=O)c1ccc(N2C(=S)N(c3ccc(C#N)c(C(F)(F)F)c3)C(=O)C2(C)C)cc1F` [Enzalutamide], the drug sensitivity score is 0 DSS under setting [1], 1.3 DSS under setting [2] and 0 DSS under setting [3].
For the molecule `Cc1c2oc3c(C)ccc(C(=O)N[C@@H]4C(=O)N[C@H](C(C)C)C(=O)N5CCC[C@H]5C(=O)N(C)CC(=O)N(C)[C@@H](C(C)C)C(=O)O[C@@H]4C)c3nc-2c(C(=O)N[C@@H]2C(=O)N[C@H](C(C)C)C(=O)N3CCC[C@H]3C(=O)N(C)CC(=O)N(C)[C@@H](C(C)C)C(=O)O[C@@H]2C)c(N)c1=O` [Dactinomycin], the drug sensitivity score under setting [1] was determined as 24.3 DSS, the drug sensitivity score under setting [2] came to 24 DSS and the drug sensitivity score under setting [3] amounted to 26.8 DSS.
Taken in the same sequence, the figures for `CCN1CCN(Cc2ccc(Nc3ncc(F)c(-c4cc(F)c5nc(C)n(C(C)C)c5c4)n3)nc2)CC1` [Abemaciclib] were 4 DSS, 0.2 DSS and 4.1 DSS.
Take `COc1cc2c(NC3CCN(C(C)C)CC3)nc(N3CCC(F)(F)CC3)nc2cc1OCCCN1CCCC1` [UNC0642]: the drug sensitivity score stood at 4.7 DSS under setting [1], 8.7 DSS under setting [2] and 8.4 DSS under setting [3].
Taken in the same sequence, the figures for `O=C(Nc1cccc(NC(=O)c2cccc(O)c2O)c1)c1cccc(O)c1O` [MST-312] were 7.6 DSS, 5.2 DSS and 8.2 DSS.
As to `O=C(Nc1nc2cccc(-c3ccc(CN4CCS(=O)(=O)CC4)cc3)n2n1)C1CC1` [Filgotinib], the drug sensitivity score is, setting by setting: under setting [1], 1.5 DSS; under setting [2], 0 DSS; under setting [3], 3.6 DSS.
On to `C=CCN(/C=C1/C(=O)O[C@H](COC)[C@@]2(C)C1=C(O)C(=O)C1=C2[C@H](OC(C)=O)C[C@]2(C)C(=O)CC[C@@H]12)CC=C` [Sonolisib], for which the drug sensitivity score reads like this: under setting [1], 0 DSS; under setting [2], 0.3 DSS; under setting [3], 2.1 DSS.
With `O=C(Nc1cccnc1)N1CCC(Cc2cccc(Oc3ccc(C(F)(F)F)cn3)c2)CC1` [PF-3845], the drug sensitivity score reads like this: under setting [1], 0.1 DSS; under setting [2], 2.4 DSS; under setting [3], 0.3 DSS.
